Reference: patent US20070129403A1, “METHOD OF TREATING SCHIZOPHRENIA AND/OR GLUCOREGULATORY ABNORMALITIES” (AVENTIS PHARMACEUTICALS INC., priority 2004, published 2007)
Where “and” joins values, the source holds several entries; their conditions need not be identical. Equal values may be shown once.

How the values were obtained:
[1] = biological target: T1, voltage-gated potassium channels in hamster HIT-T15 insulinoma cells (Mesocricetus auratus, UniProt A0A3Q0CYQ2); assay: Whole-cell patch clamp, voltage-gated potassium currents in HIT-T15 insulinoma cells; format: cell-based, Syrian Hamster; settings: for Voltage-Gated Potassium Current (% Control), Average: average of cells; for Voltage-Gated Potassium Current (% Control), single cells: individual cells #1-#5
T1 construct: endogenous in cells; host or cells: HIT-T15 (Syrian hamster insulinoma)
T1 sequence (A0A3Q0CYQ2 1-857): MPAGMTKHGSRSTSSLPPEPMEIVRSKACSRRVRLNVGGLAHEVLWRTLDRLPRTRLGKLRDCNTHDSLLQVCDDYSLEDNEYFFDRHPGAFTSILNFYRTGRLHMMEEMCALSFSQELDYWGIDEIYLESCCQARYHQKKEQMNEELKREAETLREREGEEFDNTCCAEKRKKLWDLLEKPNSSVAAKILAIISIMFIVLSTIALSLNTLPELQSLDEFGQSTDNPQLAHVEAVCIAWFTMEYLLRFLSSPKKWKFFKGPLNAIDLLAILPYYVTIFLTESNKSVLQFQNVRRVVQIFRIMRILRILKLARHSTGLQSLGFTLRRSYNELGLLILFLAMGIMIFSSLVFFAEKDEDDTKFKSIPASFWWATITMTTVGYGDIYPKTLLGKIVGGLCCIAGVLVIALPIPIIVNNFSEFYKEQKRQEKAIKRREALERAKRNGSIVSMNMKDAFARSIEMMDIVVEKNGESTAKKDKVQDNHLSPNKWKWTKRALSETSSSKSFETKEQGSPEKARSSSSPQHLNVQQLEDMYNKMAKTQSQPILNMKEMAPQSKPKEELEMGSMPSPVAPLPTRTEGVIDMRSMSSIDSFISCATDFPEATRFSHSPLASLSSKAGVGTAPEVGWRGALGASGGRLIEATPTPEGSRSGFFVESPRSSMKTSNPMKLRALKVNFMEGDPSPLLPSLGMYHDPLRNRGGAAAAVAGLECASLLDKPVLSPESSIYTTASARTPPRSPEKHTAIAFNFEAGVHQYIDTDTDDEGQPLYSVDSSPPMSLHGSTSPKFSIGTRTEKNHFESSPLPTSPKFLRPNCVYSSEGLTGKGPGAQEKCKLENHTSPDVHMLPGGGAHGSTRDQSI
Procedure: The purpose of this in vitro study was to evaluate the effects of HP184 on voltage-gated potassium channels in hamster HIT-T15 insulinoma cells using the whole-cell patch-clamping technique.
HIT-T15 cells (from Syrian Hamster pancreas) expressing voltage-gated potassium channels were grown in RPMI media supplemented with 10% fetal bovine serum and 1×penicillin/streptomycin in an atmosphere of 95% air/5% CO2. Cells used for patch-clamping were seeded on glass or plastic coverslips 12-36 hours before use. Currents were recorded at room temperature using the whole-cell configuration of the patch clamp technique with an Axopatch 200B amplifier (Axon Instruments, Foster City, Calif.). Briefly, electrodes (3-6 MΩ resistance) were fashioned from TW150F glass capillary tubes (World Precision Instruments Sarasota, Fla.) and filled with pipette solution (in mM: potassium aspartate 120; KCl 20; Na2ATP 4; HEPES 5; MgCl2 1; pH 7.2 adjusted with KOH). Currents were initiated by a 300-ms positive voltage pulse (20 mV) followed by a 50-ms negative pulse (−100 mV) and were recorded for off-line analyses. Once current from a cell perfused with control external solution (in mM: NaCl 130; KCl 5; sodium acetate 2.8; MgCl2 1; HEPES, 10; glucose 10; CaCl2 1 at pH7.4 adjusted with NaOH) was stabilized, the cell was perfused with external solution containing 1 μM HP184 (batch: R.C.4.53.3; molecular weight: 320.5; diluted from a 50 mM stock solution in DMSO prepared daily; the DMSO final concentration in all drug solutions was not more than 0.06%). Currents were continuously recorded until they reached steady-state condition. The same procedure was performed with increasing concentrations of HP184 (3, 10 and 30 μM, sequentially). For each concentration from each cell, the steady-state current at the end of the 20-mV activation pulse was measured in pico Ampere (pA).
The amplitude in pA for each concentration was compared with that for the control solution from the same cell and expressed as percent control (% control).

[2] = biological target: T2, cloned human Kv2.1 potassium channels (Homo sapiens, UniProt Q14721); assay: Whole-cell patch clamp, cloned human Kv2.1 channels expressed in U-373MG cells; format: cell-based; settings: for Kv 2.1 Current (% Control), Average: average of cells; for Kv 2.1 Current (% Control), single cells: individual cells
T2 construct: expressed in transfected cells; host or cells: U-373MG (G418 selection)
T2 sequence (Q14721 1-858): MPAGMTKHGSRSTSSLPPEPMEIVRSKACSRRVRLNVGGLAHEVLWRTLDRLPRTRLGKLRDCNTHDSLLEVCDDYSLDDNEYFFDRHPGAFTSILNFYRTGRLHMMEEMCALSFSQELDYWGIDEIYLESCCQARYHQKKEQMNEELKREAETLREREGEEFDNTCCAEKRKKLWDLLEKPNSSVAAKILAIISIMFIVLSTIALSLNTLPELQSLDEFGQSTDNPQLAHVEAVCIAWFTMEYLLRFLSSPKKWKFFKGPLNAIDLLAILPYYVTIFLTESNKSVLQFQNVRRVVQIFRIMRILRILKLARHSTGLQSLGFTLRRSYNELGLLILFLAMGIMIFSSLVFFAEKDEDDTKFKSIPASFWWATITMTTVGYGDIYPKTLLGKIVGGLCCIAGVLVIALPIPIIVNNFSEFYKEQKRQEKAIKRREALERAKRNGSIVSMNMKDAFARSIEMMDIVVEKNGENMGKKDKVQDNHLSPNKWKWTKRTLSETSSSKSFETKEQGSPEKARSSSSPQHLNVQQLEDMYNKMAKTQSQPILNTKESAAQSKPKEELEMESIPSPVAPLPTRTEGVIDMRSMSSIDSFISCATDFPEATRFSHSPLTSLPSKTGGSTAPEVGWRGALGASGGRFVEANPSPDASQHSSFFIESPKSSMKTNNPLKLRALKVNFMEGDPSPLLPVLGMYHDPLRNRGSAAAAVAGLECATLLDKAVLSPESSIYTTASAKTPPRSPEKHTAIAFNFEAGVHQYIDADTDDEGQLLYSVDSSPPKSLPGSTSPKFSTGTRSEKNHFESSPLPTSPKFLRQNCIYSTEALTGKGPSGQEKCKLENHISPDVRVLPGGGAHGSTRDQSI
Procedure: The purpose of this in vitro study was to evaluate the effects of HP184 on cloned human Kv2.1 potassium channels expressed in U-373MG cells using the whole-cell patch-clamping technique.
U-373MG cells expressing the human Kv2.1 channels were grown in DMEM media supplemented with 10% fetal bovine serum, 1×penicillin/streptomycin and […], G418 (Invitrogen, Carlsbad, Calif.) in an atmosphere of 95% air/5% CO2. Cells used for patch-clamping were seeded on glass or plastic coverslips 12-36 hours before use. Kv2.1 Currents were recorded at room temperature using the whole-cell configuration of the patch clamp technique with an Axopatch 200B amplifier (Axon Instruments, Foster City, Calif.). Briefly, electrodes (2-4 MΩ resistance) were fashioned from TW150F glass capillary tubes (World Precision Instruments, Sarasota, Fla.) and filled with pipette solution (in mM: potassium aspartate 120; KCl 20; Na2ATP 4; HEPES 5; MgCl2 1; pH 7.2 adjusted with KOH). For dose-dependently, currents were initiated by a 300-ms positive voltage pulse (20 mV) followed by a 50-ms negative pulse (−100 mV) and were recorded for off-line analyses. Once current from a cell perfused with control external solution (in mM: NaCl 130; KCl 5; sodium acetate 2.8; MgCl2 1; HEPES, 10; glucose 10; CaCl2 1 at pH7.4 adjusted with NaOH) was stabilized, the cell was perfused with external solution containing 1 μM HP184 (batch: R.C.4.53.3; molecular weight: 320.5; diluted from a 50 mM stock solution in DMSO; the DMSO final concentration in all drug solutions was not more than 0.06%). Currents were continuously recorded until they reached steady-state condition. The same procedure was performed with increasing concentrations of HP184 (3, 10 and 30 μM, sequentially). For each concentration from each cell, the steady-state current at the end of the 20-mV activation pulse was measured in pico Ampere (pA). The amplitude in pA for each concentration was compared with that for the control solution from the same cell and expressed as percent control (% control).

[3] = test system: release of norepinephrine, acetylcholine and serotonin; settings: dependence on added calcium; Smith et al, 1993; 1996; cited from earlier work

Row | SMILES | Voltage-Gated Potassium Current (% Control), Average ([1]; 1 μM) [% Control] | Voltage-Gated Potassium Current (% Control), single cells ([1]; 1 μM) | Voltage-Gated Potassium Current (% Control), Average ([1]; 3 μM) [% Control] | Voltage-Gated Potassium Current (% Control), single cells ([1]; 3 μM) | Voltage-Gated Potassium Current (% Control), Average ([1]; 10 μM) [% Control] | Voltage-Gated Potassium Current (% Control), single cells ([1]; 10 μM) | Voltage-Gated Potassium Current (% Control), Average ([1]; 30 μM) [% Control] | Voltage-Gated Potassium Current (% Control), single cells ([1]; 30 μM) | IC50 ([1]; HIT-T15 cells, steady-state current at end of 20-mV pulse, read-out: IC50, block of voltage-gated potassium currents) [µM] | Kv 2.1 Current (% Control), Average ([2]; 1 μM) [% Control] | Kv 2.1 Current (% Control), single cells ([2]; 1 μM) | Kv 2.1 Current (% Control), Average ([2]; 3 μM) [% Control] | Kv 2.1 Current (% Control), single cells ([2]; 3 μM) | Kv 2.1 Current (% Control), Average ([2]; 10 μM) [% Control] | Kv 2.1 Current (% Control), single cells ([2]; 10 μM) | Kv 2.1 Current (% Control), Average ([2]; 30 μM) [% Control] | Kv 2.1 Current (% Control), single cells ([2]; 30 μM) | IC50 ([2]; U-373MG cells expressing human Kv2.1, read-out: IC50, block of Kv2.1 current) [µM] | Release of norepinephrine, acetylcholine and serotonin from rat brain slices (in words) [3]
1 | CCCN(c1ccncc1F)n1cc(C)c2ccccc21 [HP184, N-(3-fluoro-4-pyridinyl)-N-propyl-3-methyl-1H-indole-1-amine] | 85.7 | 95.1 % Control and 84.7 % Control and 80.9 % Control and 85.4 % Control and 82.6 % Control | 62.5 | 86.4 % Control and 61.5 % Control and 46.4 % Control and 58.8 % Control and 59.3 % Control | 17.2 | 34.0 % Control and 9.1 % Control and 12.6 % Control (2×) and 17.8 % Control | 1.4 | 2.6 % Control and 0.8 % Control and 0.9 % Control and 1.2 % Control | 3.9 | 91.7 | 98 % Control and 91.0 % Control and 89.2 % Control and 91.6 % Control and 95.0 % Control and 90.5 % Control (2×) and 94.5 % Control and 83.6 % Control and 91.8 % Control and 95.5 % Control | 72.3 | 93.0 % Control and 63.1 % Control and 69.6 % Control and 62.9 % Control and 68.5 % Control and 70.8 % Control and 87.5 % Control and 86.1 % Control and 88.5 % Control and 79.9 % Control and 89.7 % Control | 28.3 | 58.2 % Control and 19.9 % Control and 37.7 % Control and 24.4 % Control and 17.1 % Control and 38.5 % Control and 43.8 % Control and 13.1 % Control and 19.1 % Control and 12.5 % Control | 10.4 | 22.1 % Control and 13.7 % Control (2×) and 16.2 % Control and 6.7 % Control and 1.4 % Control and 12.8 % Control and 4.8 % Control (2×) and 8.7 % Control | 5.6 | 
2 | Nc1ccncc1 [4-AP, 4-aminopyridine] |  |  |  |  |  |  |  |  |  |  |  |  |  |  |  |  |  |  | dependent on added calcium
